According to ChEMBL document CHEMBL1141976, “Discovery of 2,3,5-trisubstituted pyridine derivatives as potent Akt1 and Akt2 dual inhibitors” (Bioorg Med Chem Lett, 2005):

Assays:
[1] = target: RAC-alpha serine/threonine-protein kinase (Homo sapiens, UniProt P31749); assay: Inhibitory concentration against Akt1 kinase
[2] = target: RAC-gamma serine/threonine-protein kinase (Homo sapiens, UniProt Q9Y243); assay: Inhibitory concentration against Akt3 kinase
[3] = Inhibitory concentration against Akt2 kinase; parameters: species or system Homo sapiens

RAC-gamma serine/threonine-protein kinase, sequence (Q9Y243 whole entry, looked up): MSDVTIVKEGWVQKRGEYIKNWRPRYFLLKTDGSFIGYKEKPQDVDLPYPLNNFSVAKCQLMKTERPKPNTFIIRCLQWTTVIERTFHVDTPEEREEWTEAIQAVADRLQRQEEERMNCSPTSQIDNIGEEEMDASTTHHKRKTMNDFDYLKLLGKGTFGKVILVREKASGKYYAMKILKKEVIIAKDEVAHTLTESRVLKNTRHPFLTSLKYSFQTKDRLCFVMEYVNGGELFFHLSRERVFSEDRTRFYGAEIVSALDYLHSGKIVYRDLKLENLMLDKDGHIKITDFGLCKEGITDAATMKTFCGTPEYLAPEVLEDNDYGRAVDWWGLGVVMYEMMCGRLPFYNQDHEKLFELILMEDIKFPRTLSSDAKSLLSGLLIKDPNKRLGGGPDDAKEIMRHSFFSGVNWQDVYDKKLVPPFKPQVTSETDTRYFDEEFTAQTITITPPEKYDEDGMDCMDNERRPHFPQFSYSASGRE
RAC-alpha serine/threonine-protein kinase, sequence (P31749 whole entry): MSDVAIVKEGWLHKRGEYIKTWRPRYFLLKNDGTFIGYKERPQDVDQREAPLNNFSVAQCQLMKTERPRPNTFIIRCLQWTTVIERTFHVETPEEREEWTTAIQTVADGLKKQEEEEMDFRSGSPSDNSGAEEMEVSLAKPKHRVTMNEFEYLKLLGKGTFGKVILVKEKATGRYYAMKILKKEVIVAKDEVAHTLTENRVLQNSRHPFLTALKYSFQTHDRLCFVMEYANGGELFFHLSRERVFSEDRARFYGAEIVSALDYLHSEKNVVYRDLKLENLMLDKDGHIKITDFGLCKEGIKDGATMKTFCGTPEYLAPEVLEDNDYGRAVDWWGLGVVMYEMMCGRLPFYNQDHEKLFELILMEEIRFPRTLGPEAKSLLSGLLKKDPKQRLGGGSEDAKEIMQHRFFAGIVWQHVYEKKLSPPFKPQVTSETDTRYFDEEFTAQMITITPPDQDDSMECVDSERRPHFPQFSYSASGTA

Row | SMILES | IC50 [1] [µM] | IC50 [2] [µM] | IC50 [3] [µM]
1 | Oc1nc2ccccc2n1C1CCN(Cc2ccc(-c3cc4ccccc4nc3-c3ccccc3)cc2)CC1 | 3.14 | > 50 | 33.7
2 | c1ccc(-c2cc(-c3nn[nH]n3)cnc2-c2ccc(CN3CCC(n4cnc5ccccc54)CC3)cc2)cc1 | 4.24 | > 50 | 1.96
3 | c1ccc(-c2cc(-c3nn[nH]n3)cnc2-c2ccc(CN3CCC(c4nc5ccccc5[nH]4)CC3)cc2)cc1 | 3.32 | > 50 | 1.5
4 | Fc1ccc2[nH]c(C3CCN(Cc4ccc(-c5ncc(-c6nn[nH]n6)cc5-c5ccccc5)cc4)CC3)nc2c1 | 0.239 | > 50 | 1.72
5 | Cc1ccc2[nH]c(C3CCN(Cc4ccc(-c5ncc(C#N)cc5-c5ccccc5)cc4)CC3)nc2c1 | 2.87 | > 50 | 11.4
6 | Cn1nnnc1-c1cnc(-c2ccc(CN3CCC(n4c(=O)[nH]c5ccccc54)CC3)cc2)c(-c2ccccc2)c1 | 1.77 |  | 0.613
7 | N#Cc1cnc(-c2ccc(CN3CCC(n4c(=O)[nH]c5ccccc54)CC3)cc2)c(-c2ccccc2)c1 | 0.762 | > 50 | 3.14
8 | O=c1[nH]c2ccccc2n1C1CCN(Cc2ccc(-c3ncc(-c4nnn[nH]4)cc3-c3ccccc3)cc2)CC1 | 0.273 | > 50 | 0.157
9 | Oc1nc2ccccc2n1C1CCN(Cc2ccc(-c3nc4ccccc4cc3-c3ccccc3)cc2)CC1 | 0.365 | > 50 | 1.21
10 | N#Cc1cnc(-c2ccc(CNCc3ccc(-c4csnn4)cc3)cc2)c(-c2ccccc2)c1 | 1.29 | > 50 | 4.81
11 | N#Cc1cnc(-c2ccc(CN3CCC(n4cnc5ccccc54)CC3)cc2)c(-c2ccccc2)c1 | 4.4 | > 50 | 13
12 | Cc1ccc2[nH]c(C3CCN(Cc4ccc(-c5ncc(-c6nn[nH]n6)cc5-c5ccccc5)cc4)CC3)nc2c1 | 0.763 | > 50 | 0.422
13 | N#Cc1cnc(-c2ccc(CN3CCC(c4nc5cc(F)ccc5[nH]4)CC3)cc2)c(-c2ccccc2)c1 | 0.865 | > 50 | 6.65
14 | N#Cc1cnc(-c2ccc(CN3CCC(c4nc5ccccc5[nH]4)CC3)cc2)c(-c2ccccc2)c1 | 1.47 | > 50 | 8.74
15 | Cc1nc2ccccc2n1C1CCN(Cc2ccc(-c3ncc(-c4nn[nH]n4)cc3-c3ccccc3)cc2)CC1 | 6.91 | > 50 | 2.75
16 | c1ccc(-c2cc(-c3nn[nH]n3)cnc2-c2ccc(CNCc3ccc(-c4csnn4)cc3)cc2)cc1 | 0.177 | > 50 | 0.248
17 | Cc1nc2ccccc2n1C1CCN(Cc2ccc(-c3ncc(C#N)cc3-c3ccccc3)cc2)CC1 | 7.41 | > 50 | 18.4
